{"source": "paper PMC12440824", "about": "“Chimeric deubiquitinase engineering reveals structural basis for specific inhibition of the mitophagy regulator USP30” (Nature Structural & Molecular Biology, 2025)", "key": {"[1]": {"biological_target": "USP30^ch3 F157A (Homo sapiens, UniProt Q70CQ3, F157A, form not given)", "sequence (Q70CQ3 64-502 F157A, form open)": "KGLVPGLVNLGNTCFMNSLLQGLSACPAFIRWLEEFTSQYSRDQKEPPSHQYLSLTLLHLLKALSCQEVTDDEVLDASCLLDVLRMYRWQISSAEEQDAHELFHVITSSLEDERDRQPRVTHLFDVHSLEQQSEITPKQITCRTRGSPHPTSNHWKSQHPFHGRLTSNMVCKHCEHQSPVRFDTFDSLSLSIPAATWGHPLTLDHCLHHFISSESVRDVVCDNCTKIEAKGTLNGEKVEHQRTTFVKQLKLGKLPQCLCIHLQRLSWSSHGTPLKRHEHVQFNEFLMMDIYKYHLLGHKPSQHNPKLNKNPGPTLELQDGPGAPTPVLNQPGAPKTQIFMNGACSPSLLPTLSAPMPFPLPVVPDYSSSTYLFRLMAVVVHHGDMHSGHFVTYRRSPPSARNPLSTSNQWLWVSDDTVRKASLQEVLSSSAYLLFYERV", "sequence (P54578 248-318 partner, form open)": "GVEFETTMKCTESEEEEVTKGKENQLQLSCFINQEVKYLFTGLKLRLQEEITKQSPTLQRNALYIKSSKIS", "sequence (Q9P2H5 821-846 partner, form open)": "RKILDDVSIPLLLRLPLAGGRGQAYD", "assay": "Ub–RhoG cleavage enzyme inhibition assay, chimera 3 F157A", "format": "biochemical", "details": "mean n=3", "procedure": "(§1) Enzyme kinetics were performed in black, low-volume, non-binding-surface 384-well plates. […] Next, 10 µl of 2× enzyme solution was added in triplicate to the plate. The reaction was started by adding 10 µl of 2× substrate solution. […] Inhibitor solution (4×) was added to 4× enzyme solution to create a 2× enzyme–inhibitor mixture. Next, 10 µl of this 2× enzyme–inhibitor mixture was then added to the plate in triplicate, and the plate was incubated at room temperature for 90 min. The reaction was started by adding 10 µl of 2× Ub–RhoG substrate. […] Data were analyzed with GraphPad Prism."}, "[2]": {"biological_target": "USP30^ch3 A162S (Homo sapiens, UniProt Q70CQ3, A162S, form not given)", "sequence (Q70CQ3 64-502 A162S, form open)": "as the sequence (Q70CQ3 64-502 F157A, form open) above, with A94F, A99S counted along it", "sequence (P54578 248-318 partner, form open)": "as the sequence (P54578 248-318 partner, form open) above", "assay": "Ub–RhoG cleavage enzyme inhibition assay, chimera 3 A162S", "format": "biochemical", "details": "mean n=3", "procedure": "as §1"}, "[3]": {"biological_target": "USP30^ch3 (Homo sapiens, UniProt Q70CQ3)", "sequence (Q70CQ3 64-502)": "as the sequence (Q70CQ3 64-502 F157A, form open) above, with A94F counted along it", "sequence (P54578 248-318 partner)": "as the sequence (P54578 248-318 partner, form open) above", "assay": "Thermal shift assay, USP30 ch3", "format": "binding", "details": "20 μM inhibitor", "procedure": "The thermal stability of USP30 constructs and effects of either inhibitor or Ub-PA binding were determined by thermal shift assays. Inhibitor, Ub-PA and SYPRO orange dye (Sigma, 5,000× stock in DMSO) solutions were prepared in 1× PBS, 4 mM DTT. Inhibitor/Ub-PA was prediluted to 100 µM, and SYPRO orange dye was prediluted to 50× (from the commercial stock). Mixtures of protein, inhibitor/Ub-PA and SYPRO were prepared with inhibitor/Ub-PA at a final concentration of 20 μM, SYPRO at a final concentration of 4× and protein at a final concentration of 2 μM for c1, 4 μM for ch1, ch4 and c2 and 3 μM for ch2 and ch3. Samples were added in triplicate to a white 96-well PCR plate (Bio-Rad). Fluorescence intensity was monitored (excitation, 450–490 nm; emission, 560–580 nm) at a gradient of 20–90 °C (increment of 0.3 °C, hold for 5 s before read) on a real-time PCR system (Bio-Rad)."}, "[4]": {"system": "other DUBs", "details": "at 100 µM; cited from earlier work"}, "[5]": {"system": "USP30", "parameters": "method as in PMID 37385347", "details": "‘pseudo-covalent’ binding mode proposed; cited from earlier work"}, "[6]": {"biological_target": "USP30^ch2 (Homo sapiens, UniProt Q70CQ3)", "sequence (Q70CQ3 64-502)": "as the sequence (Q70CQ3 64-502 F157A, form open) above, with A94F counted along it", "sequence (P54578 248-318 partner)": "as the sequence (P54578 248-318 partner, form open) above", "assay": "Ub–RhoG cleavage enzyme inhibition assay, chimera 2", "format": "biochemical", "parameters": "scale not given here", "details": "mean n=3", "procedure": "as §1"}, "[7]": {"system": "USP30", "details": "read-out: Cellular ABPP IC50 / cellular target engagement, cited from earlier work"}, "[8]": {"biological_target": "USP30^ch1 (Homo sapiens, UniProt Q70CQ3)", "sequence (Q70CQ3 64-502)": "as the sequence (Q70CQ3 64-502 F157A, form open) above, with A94F counted along it", "sequence (Q93009 325-395 partner)": "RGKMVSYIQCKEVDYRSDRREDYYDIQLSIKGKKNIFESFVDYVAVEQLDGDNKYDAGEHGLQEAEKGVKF", "assay": "Ub–RhoG cleavage enzyme inhibition assay, chimera 1", "format": "biochemical", "parameters": "scale not given here", "details": "mean n=3", "procedure": "as §1"}, "[9]": {"system": "USP30 constructs (construct 1, chimeras 1–3)", "assay": "Ub–RhoG cleavage enzyme inhibition assay, statements across constructs", "format": "biochemical, human", "details": "addition of hydroxyl group at the tert-butyl group", "procedure": "Enzyme kinetics were performed in black, low-volume, non-binding-surface 384-well plates. For activity assays, 2× Ub–RhoG substrate (final concentration, 50 nM) and 2× enzyme (final concentration, 0.25–32 nM) were prepared in 20 mM HEPES, pH 8.0, 50 mM NaCl, 5 mM DTT, 0.1 mg ml^−1 BSA. Next, 10 µl of 2× enzyme solution was added in triplicate to the plate. The reaction was started by adding 10 µl of 2× substrate solution. For enzyme inhibition assays, 2× substrate (final concentration, 100 nM), 4× enzyme (final concentration, 0.1 nM) and 4× inhibitor (final concentration, 1.6 pM–1.6 μM) were prepared in 50 mM Tris-HCl, pH 8.0, 0.05 mg ml^−1 BSA, 4 mM DTT, 0.01% Tween-20. Inhibitor solution (4×) was added to 4× enzyme solution to create a 2× enzyme–inhibitor mixture. Next, 10 µl of this 2× enzyme–inhibitor mixture was then added to the plate in triplicate, and the plate was incubated at room temperature for 90 min. The reaction was started by adding 10 µl of 2× Ub–RhoG substrate. Substrate cleavage was monitored by measurement of cleaved RhoG fluorescence (excitation, 492 nm; emission, 525 nm) every 30 s for 1 h at 25 °C on a Tecan Spark plate reader. Data were analyzed with GraphPad Prism."}}, "note": "Where two headings read alike, the source gives them in different places."}
{"smiles": "CC(C)(C)NS(=O)(=O)c1ccc(NC(=O)[C@H](Cc2ccccc2)NC(=O)c2ccc(F)cc2)cc1", "note": "[compound 39]", "values": [{"measurement": "USP30ch3 F157A activity", "setting": "[1]; inhibitor 0.001563 nM", "value": 0.978}, {"measurement": "USP30ch3 F157A activity", "setting": "[1]; inhibitor 0.00625 nM", "value": 1.043}, {"measurement": "USP30ch3 F157A activity", "setting": "[1]; inhibitor 0.025 nM", "value": 0.9706}, {"measurement": "USP30ch3 F157A activity", "setting": "[1]; inhibitor 0.1 nM", "value": 0.9583}, {"measurement": "USP30ch3 F157A activity", "setting": "[1]; inhibitor 0.39 nM", "value": 0.8963}, {"measurement": "USP30ch3 F157A activity", "setting": "[1]; inhibitor 1.56 nM", "value": 0.8924}, {"measurement": "USP30ch3 F157A activity", "setting": "[1]; inhibitor 6.25 nM", "value": 0.7707}, {"measurement": "USP30ch3 F157A activity", "setting": "[1]; inhibitor 25 nM", "value": 0.6122}, {"measurement": "USP30ch3 F157A activity", "setting": "[1]; inhibitor 100 nM", "value": 0.362}, {"measurement": "USP30ch3 F157A activity", "setting": "[1]; inhibitor 400 nM", "value": 0.2241}, {"measurement": "USP30ch3 F157A activity", "setting": "[1]; inhibitor 1600 nM", "value": 0.2066}, {"measurement": "USP30ch3 A162S activity", "setting": "[2]; inhibitor 0.001563 nM", "value": 0.9737}, {"measurement": "USP30ch3 A162S activity", "setting": "[2]; inhibitor 0.00625 nM", "value": 1.01}, {"measurement": "USP30ch3 A162S activity", "setting": "[2]; inhibitor 0.025 nM", "value": 0.9776}, {"measurement": "USP30ch3 A162S activity", "setting": "[2]; inhibitor 0.1 nM", "value": 0.9451}, {"measurement": "USP30ch3 A162S activity", "setting": "[2]; inhibitor 0.39 nM", "value": 0.896}, {"measurement": "USP30ch3 A162S activity", "setting": "[2]; inhibitor 1.56 nM", "value": 0.93}, {"measurement": "USP30ch3 A162S activity", "setting": "[2]; inhibitor 6.25 nM", "value": 0.7972}, {"measurement": "USP30ch3 A162S activity", "setting": "[2]; inhibitor 25 nM", "value": 0.6308}, {"measurement": "USP30ch3 A162S activity", "setting": "[2]; inhibitor 100 nM", "value": 0.4027}, {"measurement": "USP30ch3 A162S activity", "setting": "[2]; inhibitor 400 nM", "value": 0.2411}, {"measurement": "USP30ch3 A162S activity", "setting": "[2]; inhibitor 1600 nM", "value": 0.2091}, {"measurement": "Tm in presence of compound, USP30^ch3", "setting": "[3]", "value": 61.5, "unit": "°C"}, {"measurement": "inhibition of other DUBs in a panel of recombinant enzymes", "setting": "[4]", "value": "no other DUB being inhibited"}, {"measurement": "off-rate", "setting": "[5]", "value": "exceptionally slow off-rate"}, {"measurement": "USP30ch2 activity", "setting": "[6]; inhibitor 0.0015625 nM", "value": 0.9681}, {"measurement": "USP30ch2 activity", "setting": "[6]; inhibitor 0.00625 nM", "value": 1.022}, {"measurement": "USP30ch2 activity", "setting": "[6]; inhibitor 0.025 nM", "value": 0.8647}, {"measurement": "USP30ch2 activity", "setting": "[6]; inhibitor 0.1 nM", "value": 0.7206}, {"measurement": "USP30ch2 activity", "setting": "[6]; inhibitor 0.39 nM", "value": 0.5237}, {"measurement": "USP30ch2 activity", "setting": "[6]; inhibitor 1.56 nM", "value": 0.3579}, {"measurement": "USP30ch2 activity", "setting": "[6]; inhibitor 6.25 nM", "value": 0.1977}, {"measurement": "USP30ch2 activity", "setting": "[6]; inhibitor 25 nM", "value": 0.0871}, {"measurement": "USP30ch2 activity", "setting": "[6]; inhibitor 100 nM", "value": 0.04077}, {"measurement": "USP30ch2 activity", "setting": "[6]; inhibitor 400 nM", "value": 0.01798}, {"measurement": "USP30ch2 activity", "setting": "[6]; inhibitor 1600 nM", "value": 0.005204}, {"measurement": "IC50", "setting": "[7]; listed as Compound 39", "value": "< 50", "unit": "nM"}, {"measurement": "IC50", "setting": "[7]", "value": "10 to 50", "unit": "nM"}, {"measurement": "USP30ch1 activity", "setting": "[8]; inhibitor 0.0015625 nM", "value": 0.9737}, {"measurement": "USP30ch1 activity", "setting": "[8]; inhibitor 0.00625 nM", "value": 0.9837}, {"measurement": "USP30ch1 activity", "setting": "[8]; inhibitor 0.025 nM", "value": 0.8913}, {"measurement": "USP30ch1 activity", "setting": "[8]; inhibitor 0.1 nM", "value": 0.7529}, {"measurement": "USP30ch1 activity", "setting": "[8]; inhibitor 0.39 nM", "value": 0.5726}, {"measurement": "USP30ch1 activity", "setting": "[8]; inhibitor 1.56 nM", "value": 0.3796}, {"measurement": "USP30ch1 activity", "setting": "[8]; inhibitor 6.25 nM", "value": 0.2212}, {"measurement": "USP30ch1 activity", "setting": "[8]; inhibitor 25 nM", "value": 0.1115}, {"measurement": "USP30ch1 activity", "setting": "[8]; inhibitor 100 nM", "value": 0.04824}, {"measurement": "USP30ch1 activity", "setting": "[8]; inhibitor 400 nM", "value": 0.02114}, {"measurement": "USP30ch1 activity", "setting": "[8]; inhibitor 1600 nM", "value": 0.0058}]}
{"smiles": "CC(C)(CO)NS(=O)(=O)c1ccc(NC(=O)[C@H](Cc2ccccc2)NC(=O)c2ccc(F)cc2)cc1", "note": "[NK036]", "values": [{"measurement": "decrease in potency relative to compound 39", "setting": "[9]", "value": "about one order of magnitude"}]}
